In patent US9393288B2, “Methods of treating diseases associated with PPARγ” (The University of Vermont and State Agricultural College, priority 2012, dated 2016):

How the values were obtained:
[1] = rat, in vivo
Method: A separate group of SHR-F was used to determine if relaxin crosses the BBB by treating with relaxin (4 μg/hr) for 14 days and measuring relaxin concentration in cerebrospinal fluid (CSF) and serum (SHR-F-Rln-CSF, n=4). For the osmotic pump implant, animals were anesthetized with 3% isoflurane and minipumps implanted subcutaneously in the back of the neck. All animals received post-surgical analgesia (buprenorphine, 50 μg/kg, s.c.). Relaxin infusion was continuous for 14 days until animals were euthanized for isolated vessel experiments and tissue collection.
Animals were anesthetized with isoflurane (3% in oxygen), decapitated, and trunk blood was collected for measurement of circulating relaxin. Serum was then collected and stored at −80° C. for determination of relaxin levels by enzyme-linked immunosorbent assay (ELISA) following manufacturer's instructions (Human Relaxin-2 Quantikine ELISA Kit, R&D Systems, Minneapolis, Minn., USA). Serum samples were diluted by 1:500 in the assay.
To determine the presence of relaxin in CSF, animals were anesthetized and CSF collected through a needle inserted into the cisterna magna (Liu, L., and Duff, K. (2008) A technique for serial collection of cerebrospinal fluid from the cisterna magna in mouse. Journal of visualized experiments: JoVE). […] Relaxin levels were determined in serum and CSF by ELISA as described above, except CSF was not diluted.

[2] = system: parenchymal arterioles (PA); experiment: Pressurized arteriograph: vascular reactivity and structure of PA from relaxin-treated NP Sprague Dawley rats; assay type: in vivo, rat; conditions: for Kind of structural remodeling of PA: normotensive NP rats
Text: Animals and Treatment Groups: All procedures were approved by the Institutional Animal Care and Use Committee and conducted in accordance with the National Institutes of Health Guide for the Care and Use of Laboratory Animals. Female virgin NP Sprague Dawley rats (250-300 g, 14-16 weeks, Charles River, Canada) were used for all experiments and housed in the University of Vermont Animal Care Facility. Animals were randomly selected and grouped as untreated (N=4), treated with recombinant human relaxin-2 (relaxin, 4 μg/hr; N=14), relaxin plus a specific PPARγ inhibitor GW9662 (10 mg/kg daily in food; N=8), or vehicle (20 mM sodium acetate; N=14) for 10 days through osmotic minipumps (Alzet 2ML2, Durect Corp., Cupertino, Calif., USA). GW9662 treatment was started 1 day before and for the duration of relaxin treatment to ensure PPARγ was inhibited. Animals were anesthetized with 3% isoflurane and minipumps implanted subcutaneously in the back of the neck. All animals received post-surgical analgesic (buprenorphine, 50 μg/kg, s.c.). Relaxin infusion was continuous for 10 days until animals were euthanized for vessel experiments and tissue collection. The minipumps used were capable of delivering relaxin for 14 days and thus tissue collection was within this duration.
Vessel Preparation and Pressurized Arteriograph System: After collecting trunk blood, the brain was quickly removed and placed in cold physiological salt solution (PSS). In the first set of experiments, PA between the M1 and M2 region of the MCA territory and the MCA from the same animals were carefully isolated from vehicle- or relaxin-treated animals and mounted on glass cannulas in a dual-chambered arteriograph such that one PA and one MCA from each animal were studied simultaneously. PA were identified as branches off the MCA that penetrated into the brain tissue, as previously described (25). In the second set of experiments, PA from the same brain region as above were dissected from relaxin+GW9662-treated animal and compared to PA from vehicle- and relaxin-treated animals. MCA were not studied in this second set of animals because there was no effect of relaxin on that segment of the vasculature. The proximal cannulas were connected to an in-line pressure transducer and a servo-null pressure control system (Living Systems Instrumentation, Burlington, Vt., USA) that allowed intravascular pressure to be maintained at a set pressure or changed at a variable rate. The distal cannulas were closed during the experiment to avoid flow-mediated responses. Temperature and pH were continuously measured and maintained at 37.0±0.5° C. and 7.40±0.05, respectively. Measurements of inner diameter (ID) and wall thickness (WT) were made via video microscopy (Living Systems Instrumentation).
Vascular Reactivity and Structural Characteristics in PA and MCA: For the first set of experiments, PA and MCA were equilibrated for 1 hour at 25 mmHg, after which myogenic activity was determined by stepwise increases in pressure from 40 to 100 mmHg for PA or 50 to 175 mmHg for MCA. ID and WT were measured at each pressure once stable. Changes in ID and WT were measured in PA only in response to small- (SKCa) and intermediate- (IKCa) conductance calcium-activated potassium channels blockers, apamin (3×10^−7 M) and TRAM-34 (10^−6 M), respectively. PA are unique in that the contribution of endothelium-derived hyperpolarizing factors (EDHF) to tone is greater than most vessels Cipolla et al. (2009) Stroke 40, 1451-1457. Thus, inhibition of SKCa/IKCa channels, a critical component in the EDHF pathway, causes constriction in PA Cipolla et al. (2009) Stroke 40, 1451-1457. We therefore assessed the effect of relaxin on constriction of PA in response to SKCa/IKCa channel inhibition in order to assess this unique pathway. […]

[3] = relaxin- vs vehicle-treated NP rats
[4] = relaxin- vs vehicle-treated NP rats, all pressures studied

Substance: relaxin
- Relaxin in CSF as share of that in the circulation [1]: about 0.3%
- Relaxin in cerebrospinal fluid [1]: 110 ± 30 pg/mL
- Kind of structural remodeling of PA [2]: hypertrophic outward remodeling
- Kind of structural remodeling of PA ([2]; listed as Relaxin): outward hypertrophic remodeling
- Distensibility of PA ([2]; normotensive rats): without affecting
- CSA of PA wall [2, 3]: increased
- OD of PA [2, 3]: increased
- Passive WT of PA [2, 3]: increased
- Response of PA to SKCa/IKCa inhibition (apamin, TRAM-34) [2, 3]: no difference
- Tone of PA [2, 3]: did not significantly affect
- Active diameter of PA [2, 4]: increase
- Passive ID of PA [2, 4]: significantly increased
